Biological target: hERG cardiac potassium channel (Kv11.1) (Homo sapiens, UniProt Q12809)
Assay type: cell-based
Details: hamster, cho cells

Sequence of hERG cardiac potassium channel (Kv11.1) (Q12809 whole entry): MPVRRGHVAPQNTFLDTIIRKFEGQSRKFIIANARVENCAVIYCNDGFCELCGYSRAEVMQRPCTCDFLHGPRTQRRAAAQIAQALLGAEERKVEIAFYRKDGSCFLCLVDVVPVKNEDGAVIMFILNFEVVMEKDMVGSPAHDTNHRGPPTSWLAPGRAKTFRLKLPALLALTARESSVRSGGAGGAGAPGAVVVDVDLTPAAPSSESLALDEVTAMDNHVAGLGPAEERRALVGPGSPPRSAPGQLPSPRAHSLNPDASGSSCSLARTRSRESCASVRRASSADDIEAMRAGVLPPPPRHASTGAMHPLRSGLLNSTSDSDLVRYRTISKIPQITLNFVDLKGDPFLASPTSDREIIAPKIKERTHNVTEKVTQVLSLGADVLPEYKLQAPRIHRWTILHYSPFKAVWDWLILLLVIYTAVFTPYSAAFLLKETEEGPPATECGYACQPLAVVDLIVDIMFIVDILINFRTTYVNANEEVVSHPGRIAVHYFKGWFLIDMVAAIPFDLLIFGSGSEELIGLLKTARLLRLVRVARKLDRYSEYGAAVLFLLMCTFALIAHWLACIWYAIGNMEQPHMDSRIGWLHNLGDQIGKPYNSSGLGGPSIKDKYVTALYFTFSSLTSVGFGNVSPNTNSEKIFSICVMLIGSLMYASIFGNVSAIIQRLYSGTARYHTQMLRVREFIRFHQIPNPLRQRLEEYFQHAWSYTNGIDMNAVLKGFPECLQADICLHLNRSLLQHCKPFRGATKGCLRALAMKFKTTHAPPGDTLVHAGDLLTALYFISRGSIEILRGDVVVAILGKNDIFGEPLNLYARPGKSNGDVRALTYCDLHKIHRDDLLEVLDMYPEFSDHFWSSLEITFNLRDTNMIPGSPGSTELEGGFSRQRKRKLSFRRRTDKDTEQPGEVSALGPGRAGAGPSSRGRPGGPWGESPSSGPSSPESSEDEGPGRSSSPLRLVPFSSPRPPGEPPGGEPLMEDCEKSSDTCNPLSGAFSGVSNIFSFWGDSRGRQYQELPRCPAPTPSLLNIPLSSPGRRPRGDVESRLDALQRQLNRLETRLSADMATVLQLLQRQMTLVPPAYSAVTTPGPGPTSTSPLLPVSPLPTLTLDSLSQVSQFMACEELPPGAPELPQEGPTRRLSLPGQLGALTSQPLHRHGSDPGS

AZA-2
IC50: 2200 nM

From paper PMC3946725 (Archives of toxicology, 2013)
